In the supplement of paper PMC11208160:
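Note: IS621 recombinase and bridge RNA in Escherichia coli cells.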

Assay: recombinant barcode read abundance after kanamycin selection (control-corrected) (log10(CPM+1)); higher = more efficient recombination; sequences stand for … in AGTGCAGAGAAAATCGGCCAGTTTTCTCTGCCTGCAGTCCGCATGCCGT…AGATTTATGCAGCGGACTGCCTTTCTCCCAAAGTGATAAACCGGACAGTATCATGGACCGGTTTTCCCGGTAATCCGTATTTGCAAGGTTGGTTTCACT; site = the 11-nt target
Summary of the method: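 Recombination efficiency was calculated from barcode counts at recombinant junctions, normalized to counts per million, averaged and corrected by the control. Each value is given as log10(CPM+1). The constructs were Gibson-cloned oligos (promoter, target, barcode, J23119-driven first 104 bridge RNA bases) in a vector with the remaining 73 bp and a T7-inducible recombinase, co-electroporated into E. coli with a donor plasmid and plated in duplicate on chloramphenicol/ampicillin LB agar (control) or chloramphenicol/ampicillin/kanamycin with 0.1 mM IPTG.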
In the case of “CCTAAGACTTGGGTTCTAACCTGTTGCCG (site CCTAAGACTGG)”, the “recombinant barcode read abundance (log10)” value is reported as 0.148.
In the case of “CCTAAGACTTGGGTTCTAACCTGTTGCCG (site CCTAAGACTTG)”, the “recombinant barcode read abundance (log10)” value is reported as 0.0897.
In the case of “CCTAATGCTTGGGTTCTAACCTGTTGCCT (site CCAAAGGCTAG)”, the “recombinant barcode read abundance (log10)” value is reported as 0.0782.
With “CCTAATGCTTGGGTTCTAACCTGTTGCCT (site CCTAATGCTAG)” the “recombinant barcode read abundance (log10)” value was 0.0345.
In the case of “CCTACCGCTTGGGTTCTAACCTGTTGCTT (site CCTACCGCTAA)”, the “recombinant barcode read abundance (log10)” value is reported as 0.424.
For “CCTACCGCTTGGGTTCTAACCTGTTGCTT (site CGTACCGCTAG)”, the “recombinant barcode read abundance (log10)” value was 0.0456.
For “CCTCACTCTTGGGTTCTAACCTGTTGCGG (site CCTCACTCTCC)”, the “recombinant barcode read abundance (log10)” value was 1.66.
For “CCTCACTCTTGGGTTCTAACCTGTTGCGG (site CCTCAGTCTTC)”, the “recombinant barcode read abundance (log10)” value was 0.
With “CCTCGCACTTGGGTTCTAACCTGTTGCCT (site CATCGCACTAG)” the “recombinant barcode read abundance (log10)” value was 0.0533.
With “CCTCGCACTTGGGTTCTAACCTGTTGCCT (site CCTCGCACTAG)” the “recombinant barcode read abundance (log10)” value was 0.458.
For “CCTCGCACTTGGGTTCTAACCTGTTGCCT (site CGTCGCACTAG)”, the “recombinant barcode read abundance (log10)” value was 0.133.
For “CCTCGCACTTGGGTTCTAACCTGTTGCCT (site CTTCGCACTAG)”, the “recombinant barcode read abundance (log10)” value was 0.0293.
In the case of “CCTCGGGCTTGGGTTCTAACCTGTTGCAG (site CATCGGGCTCT)”, the “recombinant barcode read abundance (log10)” value is reported as 0.0896.
In the case of “CCTCGGGCTTGGGTTCTAACCTGTTGCAG (site CCTCGGGCTCT)”, the “recombinant barcode read abundance (log10)” value is reported as 1.23.
In the case of “CCTCGGGCTTGGGTTCTAACCTGTTGCAG (site CGTCGGGCTCT)”, the “recombinant barcode read abundance (log10)” value is reported as 0.011.
In the case of “CCTCGGGCTTGGGTTCTAACCTGTTGCAG (site CTTCGGGCTCT)”, the “recombinant barcode read abundance (log10)” value is reported as 0.101.
In the case of “CCTGACTCTTGGGTTCTAACCTGTTGCAC (site CCTGACTCTGT)”, the “recombinant barcode read abundance (log10)” value is reported as 2.05.
With “CCTGACTCTTGGGTTCTAACCTGTTGCAC (site GAACTGCCTAA)” the “recombinant barcode read abundance (log10)” value was 0.0359.
With “CCTGACTCTTGGGTTCTAACCTGTTGCAT (site CCTGACTCTAT)” the “recombinant barcode read abundance (log10)” value was 2.19.
For “CCTGACTCTTGGGTTCTAACCTGTTGCAT (site TAGTGGCCTTA)”, the “recombinant barcode read abundance (log10)” value was 0.221.
With “CCTGAGACTTGGGTTCTAACCTGTTGCAG (site CCTGAGACTCT)” the “recombinant barcode read abundance (log10)” value was 1.37.
With “CCTGAGACTTGGGTTCTAACCTGTTGCAG (site CCTGGCACTCT)” the “recombinant barcode read abundance (log10)” value was 0.297.
In the case of “CCTGCGACTTGGGTTCTAACCTGTTGCAC (site AAGCACCCTCA)”, the “recombinant barcode read abundance (log10)” value is reported as 0.185.
For “CCTGCGACTTGGGTTCTAACCTGTTGCAC (site CCTGCGACTGT)”, the “recombinant barcode read abundance (log10)” value was 0.219.
With “CCTGCGGCTTGGGTTCTAACCTGTTGCCT (site CCTGCGACTAG)” the “recombinant barcode read abundance (log10)” value was 0.0127.
In the case of “CCTGCGGCTTGGGTTCTAACCTGTTGCCT (site CCTGCGGCTAG)”, the “recombinant barcode read abundance (log10)” value is reported as 0.15.
In the case of “CCTGGAACTTGGGTTCTAACCTGTTGCTT (site CCTGGAACTAA)”, the “recombinant barcode read abundance (log10)” value is reported as 0.418.
In the case of “CCTGGAACTTGGGTTCTAACCTGTTGCTT (site CCTGGAGCTAT)”, the “recombinant barcode read abundance (log10)” value is reported as 0.333.
In the case of “CCTGGACCTTGGGTTCTAACCTGTTGCGT (site CCTGGACCTAC)”, the “recombinant barcode read abundance (log10)” value is reported as 2.06.
For “CCTGGACCTTGGGTTCTAACCTGTTGCGT (site CCTGGGCCTAA)”, the “recombinant barcode read abundance (log10)” value was 0.0265.
For “CCTGGAGCTTGGGTTCTAACCTGTTGCAT (site CCTGGAACTAA)”, the “recombinant barcode read abundance (log10)” value was 0.266.
For “CCTGGAGCTTGGGTTCTAACCTGTTGCAT (site CCTGGAGCTAT)”, the “recombinant barcode read abundance (log10)” value was 0.654.
With “CCTGGCACTTGGGTTCTAACCTGTTGCAG (site CCTGAGACTCT)” the “recombinant barcode read abundance (log10)” value was 0.
In the case of “CCTGGCACTTGGGTTCTAACCTGTTGCAG (site CCTGGCACTCT)”, the “recombinant barcode read abundance (log10)” value is reported as 1.96.
In the case of “CCTGGGACTTGGGTTCTAACCTGTTGCTA (site ATGATACCTAT)”, the “recombinant barcode read abundance (log10)” value is reported as 0.186.
For “CCTGGGACTTGGGTTCTAACCTGTTGCTA (site CCTGGGACTTA)”, the “recombinant barcode read abundance (log10)” value was 2.03.
